Data as given in article PMC6921279 (Frontiers in Endocrinology, 2019).

Legend:
EGFR Tyr845 = assay: CRF-induced EGFR phosphorylation at Tyr845 in COS-7 cells expressing HA-CRF1R; assay type: cell-based; settings: 100 nM wortmannin, 30 min pretreatment; 100 nM CRF, 5 min
Description: COS-7 cells (from the American Type Culture Collection) were cultured at 37°C in a humidified atmosphere of 95% air, 5% CO2, in DMEM supplemented with 10% FBS, 100 μg/ml streptomycin, and 100 units/ml penicillin (COS-7 growth medium). Transient transfections were performed using LipofectAMINE (Life Technologies: Gaithersburg, MD) as described previously ([27]). Cells were seeded at 8 × 10^5 cells/10-cm dish in COS-7 medium and cultured for 3 days before transfection. COS-7 cells were transfected in 5 ml/dish OptiMEM containing 10 μg/ml LipofectAMINE with empty vector, pcDNA3 encoding the HA-CRF1R or the HA-CRF1R-Δ386 mutant. […]
(§1) The protocols for measuring total and phosphorylated ERK1/2, c-Src, PYK2, Akt, and EGFR have been previously published ([28], [29]). […] The labeled bands were quantified using the Quantity One 4.6.3 software program (Bio-Rad).
Figure 6 CRF mediates EGFR phosphorylation at Tyr^845 and activation of PYK2. […] Total cell lysates were separated by SDS-PAGE and analyzed by immunoblotting with anti-p-EGFR Tyr^845 (A,B) or anti-p-PYK2 Tyr^402 (E), as described in Materials and Methods. EGFR and ERK1/2 phosphorylation were quantitated by densitometry, and mean values were plotted from three to five independent experiments. […] Src and EGFR were quantitated by densitometry, and mean values were plotted from three independent experiments. […]

Src = assay: CRF-induced Src phosphorylation at Tyr416 in COS-7 cells expressing HA-CRF1R; assay type: cell-based; settings: 100 nM wortmannin, 30 min pretreatment; 100 nM CRF, 5 min
Description: COS-7 cells (from the American Type Culture Collection) were cultured at 37°C in a humidified atmosphere of 95% air, 5% CO2, in DMEM supplemented with 10% FBS, 100 μg/ml streptomycin, and 100 units/ml penicillin (COS-7 growth medium). Transient transfections were performed using LipofectAMINE (Life Technologies: Gaithersburg, MD) as described previously ([27]). Cells were seeded at 8 × 10^5 cells/10-cm dish in COS-7 medium and cultured for 3 days before transfection. COS-7 cells were transfected in 5 ml/dish OptiMEM containing 10 μg/ml LipofectAMINE with empty vector, pcDNA3 encoding the HA-CRF1R or the HA-CRF1R-Δ386 mutant. […] After replacing the transfection medium with fresh growth medium, transfected COS-7 cells were cultured for 1 day. […]
as §1
Figure 5 Role of Src tyrosine kinase in CRF-stimulated ERK1/2 phosphorylation. […] Total cell lysates were separated by SDS-PAGE and analyzed by immunoblotting with anti-p-Src Tyr^416 (A,B) or anti-p-ERK1/2 Thr^202/Tyr^204 (C–E), as described in Materials and Methods. Src, PYK2, and ERK1/2 phosphorylation were quantitated by densitometry, and mean values were plotted from three to five independent experiments. […]

COC[C@H]1OC(=O)c2coc3c2[C@@]1(C)C1=C(C3=O)[C@@H]2CCC(=O)[C@@]2(C)C[C@H]1OC(C)=O [wortmannin]
effect on CRF-induced EGFR Tyr845 phosphorylation (EGFR Tyr845): had no effect on CRF-induced phosphorylation of EGFR at Tyr^845
effect on CRF-induced Src Tyr416 phosphorylation (Src): did not alter CRF-induced phosphorylation of Src at Tyr^416
